Measurements: patent US7888474B2, “HDM2 polypeptides” (Schering Corporation, priority 2007, dated 2011)

Columns and labels:
HDM2 [1] = molecular target: T1, HDM2 (Homo sapiens, UniProt Q00987); test: Fluorescent polarization assay (FAM-labeled p53 peptide ligand competition); format: binding; settings: 10 nM HDM2 protein, 1 nM FAM-labeled p53 peptide ligand, PBS buffer; for Ki: non-linear regression
HDM2 [2] = molecular target: T1, HDM2; test: TdF assay (thermal melting with Sypro Orange); format: binding; settings: 6 uM HDM2, 10 mM HEPES pH 7.4, 150 mM NaCl, 1 mM DTT, 10 and 20 uM compound

T1 sequence (Q00987 whole entry): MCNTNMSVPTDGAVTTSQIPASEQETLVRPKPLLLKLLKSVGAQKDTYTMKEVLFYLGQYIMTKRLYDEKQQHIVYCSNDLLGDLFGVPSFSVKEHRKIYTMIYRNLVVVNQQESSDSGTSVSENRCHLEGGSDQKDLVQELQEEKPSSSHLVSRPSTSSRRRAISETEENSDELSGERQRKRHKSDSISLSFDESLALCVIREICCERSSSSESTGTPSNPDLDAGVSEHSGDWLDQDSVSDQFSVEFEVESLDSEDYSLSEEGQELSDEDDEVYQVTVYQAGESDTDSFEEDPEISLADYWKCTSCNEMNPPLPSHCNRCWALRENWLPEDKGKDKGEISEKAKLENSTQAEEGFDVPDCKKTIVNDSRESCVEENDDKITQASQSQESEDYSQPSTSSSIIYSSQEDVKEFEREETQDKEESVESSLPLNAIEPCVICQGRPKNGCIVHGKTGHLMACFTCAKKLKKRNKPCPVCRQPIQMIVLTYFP

| IC50 (HDM2 [1]) [nM] | Ki (HDM2 [1]) [nM] | Kd (HDM2 [2]) [nM] | SMILES |
| --- | --- | --- | --- |
| < 5000 | < 2000 | < 2000 | COCCOc1ccccc1N1CCN(C(=O)[C@]2(Oc3ccc(C(F)(F)F)cc3)CCCN(C(=O)c3cnccc3C(F)(F)F)[C@@H]2C(O)C(C)O)CC1 (stereo partly drawn) [Compound 4] |
| < 5000 | < 2000 | < 2000 | O=C(c1cnccc1C(F)(F)F)N1CCCC(Oc2ccc(C(F)(F)F)cc2)(C(=O)N2CCN(c3ccccn3)CC2)C1 (stereo not drawn) [Compound 1] |
